Source: article PMC7901699, “Challenging inflammatory process at molecular, cellular and in vivo levels via some new pyrazolyl thiazolones” (Journal of Enzyme Inhibition and Medicinal Chemistry, 2021)

Columns and labels:
ovine COX-1 = target: T1, ovine COX-1 (Ovis aries, UniProt P05979); experiment: In vitro COX-1 inhibition assay (colorimetric COX inhibitor screening kit, Cayman); assay type: biochemical; conditions: mean of three determinations
T1 construct: purchased Cayman Chemicals Inc. 560131
T1 sequence (P05979 25-600): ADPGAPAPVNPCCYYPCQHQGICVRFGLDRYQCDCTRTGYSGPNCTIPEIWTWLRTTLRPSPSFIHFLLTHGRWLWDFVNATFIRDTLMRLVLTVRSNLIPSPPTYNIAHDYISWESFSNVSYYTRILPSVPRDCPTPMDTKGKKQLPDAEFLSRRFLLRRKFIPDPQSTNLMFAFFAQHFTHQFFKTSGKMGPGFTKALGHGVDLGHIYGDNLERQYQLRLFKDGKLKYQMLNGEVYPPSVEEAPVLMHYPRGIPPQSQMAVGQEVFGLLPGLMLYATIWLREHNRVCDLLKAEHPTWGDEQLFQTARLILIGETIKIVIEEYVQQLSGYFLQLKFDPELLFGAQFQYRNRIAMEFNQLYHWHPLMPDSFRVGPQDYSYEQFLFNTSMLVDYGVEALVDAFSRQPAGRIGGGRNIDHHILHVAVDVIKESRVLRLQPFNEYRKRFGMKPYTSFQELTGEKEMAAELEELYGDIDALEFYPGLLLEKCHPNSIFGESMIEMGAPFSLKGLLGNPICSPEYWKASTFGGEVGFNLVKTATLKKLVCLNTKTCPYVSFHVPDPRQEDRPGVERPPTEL
Experimental: Both assays were carried out in compliance with the manufacturer’s instructions and in accordance to prior studies[29]^,[33].
IC50 values (μM) and selectivity indices (SI) were calculated.

[1] = test system: PMA/LPS-stimulated THP-1 (M1 macrophages); experiment: Cytotoxicity assay on differentiated M1 macrophages (MTS); assay type: cell-based, human; conditions: PMA 24 h, LPS 24 h, then compound 24 h; up to 100 μM
Experimental: To confirm that the previous observations were a consequence of interference of the compounds with the differentiation process rather than a reduction in monocyte viability, THP-1 monocytes were incubated with different concentrations of the compound for 30 h. No difference in cell viability was detected. Moreover, the cytotoxic effects of the drugs on differentiated macrophages were evaluated. Following the incubation of THP-1 cells with 25 nM PMA for 24 h and 100 ng/ml LPS for 24 h, the differentiated macrophages were treated with different concentrations of the compounds for 24 h. Cell viability was assessed using MTS colorimetric cell viability kit (Abcam, Cambridge, UK).

[2] = test system: cotton pellet-induced granuloma; experiment: Cotton pellet-induced granuloma assay (chronic inflammation model); conditions: oral 5 mg/kg daily; pellets excised on 8th day; vs diclofenac sodium and celecoxib

COc1ccc(-c2nn(-c3ccccc3)cc2/C=C2\SC(N3CCCCC3)=NC2=O)cc1 [Compound 7, (Z)-5-((3-(4-methoxyphenyl)-1-phenyl-1H-pyrazol-4-yl)methylene)-2-(piperidin-1-yl)thiazol-4(5H)-one]
IC50 (ovine COX-1): 10.3 µM | M1 macrophage cell viability [1]: tended to slightly decrease | Inhibition of cotton pellet granuloma weight (in words) [2]: only superior to celecoxib
